According to PMC10675340, “Preparation, Radiolabeling with ^68Ga/^177Lu and Preclinical Evaluation of Novel Angiotensin Peptide Analog: A New Class of Peptides for Breast Cancer Targeting” (Pharmaceuticals, 2023):
Where a SMILES comes first, the peptide text is derived from it. Where no end group is shown, it is not given here. [ ]: non-standard residue; d: D form. The star is where a group is joined. DOTA = O=C(O)CN1CCN(CC(=O)O)CCN(CC(=O)*)CCN(CC(=O)O)CC1; βAla = NCCC(=O)O

Tests used:
Balb/c mice = assay: In vivo biodistribution in normal Balb/c mice; set-up: species or system mouse; details: Balb/c mice
Protocol: The in vivo biodistribution of ^68Ga-labeled AngII peptide analog was carried out in female Balb/c mice, at various time points, to observe the uptake in the normal tissues and organs and find the excretion route of the radiolabeled peptides. […] Low uptake and retention of the radiopeptide in the liver varying from 1.54 ± 0.28% ID/g at 45 min to 0.48 ± 0.17% ID/g at 2 h p.i. is probably related to the high hydrophilicity (log p = −0.55 ± 0.11) of the ^68Ga-labeled AngII peptide analog. […] The efficient clearance from the kidneys is possibly associated with the urinary excretion of the radiopeptide. […] The low amount of uptake in the bone (up to 0.37 ± 0.14% ID/g) (Table 2) indicates the minimal breakdown of the ^68Ga-labeled AngII peptide complex in vivo combined with the minor release of free ^68Ga. These findings are in agreement with the high in vitro metabolic stability observed in the human plasma for the radiolabeled AngII peptide. The accumulation in the extremely vascular organ lungs was also low (up to 1.11 ± 0.37% ID/g) signifying a low trapping by the lungs.
Approval from the Institutional Animal Care and Use Committee was obtained for the animal protocol used. Additionally, strict international regulations govern the safe and proper use of laboratory animals employed during animal experiments. In vivo, biodistribution was performed on healthy female mice according to the methods essentially described previously. In summary, Balb/c mice (n = 5 per time point, body mass 20–25 g) at 45 min and 2 h were administered with the HPLC-purified AngII peptide (~1 µg, 100 µL, 0.925–1.85 MBq; 25–50 µCi) via lateral tail vein injection. At the specified time points, the animals were sacrificed by cervical dislocation. A fraction of the blood was collected from cardiac puncture. Urine was also collected and measured with the bladder contents. Major organs, such as the lungs, pancreas, stomach, liver, heart, kidneys, and intestines were isolated, weighed, and measured for radioactivity. The uptake values of the radiolabeled peptide in different organs are expressed as the percent injected dose per gram (% ID/g) of tissue/organ. The radioactivity in the urine with bladder contents is shown as the percent of the injected dose per organ (% ID/organ). To calculate the injected dose, a standard (20-fold dilution of injected dose) was prepared and counted together with animal tissue samples.

[1] = In vitro metabolic stability in human plasma; assay type: in vitro ADME; details: 37 °C, radio-HPLC
Protocol: High proteolytic stability is an important aspect of the tumor-targeting peptides to deliver the highest possible tumor-targeting effect. The extent of proteolytic degradation of the ^177Lu-AngII peptide was determined by incubating the radiolabeled peptide with human plasma at 37° C for up to 5 h. […] A limited release of free ^177Lu amount (up to 10%) indicates the high in vitro plasma stability of the radiolabeled peptide, with low enzymatic breakdown by plasma proteases (Figure 2).
Human plasma was obtained from the institutional blood bank from volunteers’ blood donors (with consent). The metabolic stability of ^177Lu-DOTA-AngII peptide was determined following a method essentially as described previously. In summary, the radiolabeled peptide (50 μL) was mixed with plasma (400 μL) and incubated in duplicate at 37 °C for up to 5 h. After incubation, the plasma proteins were precipitated using a mixture of CH3CN/EtOH (1:1 v/v, 400 μL). The supernatant layer was collected by centrifugation (5000 rpm for 5 min), filtered through a 0.2-µm Millex GP filter, and analyzed by radio-HPLC to assess the product stability.

[2] = test system: human breast cancer cells; details: cited from earlier work
Protocol: The values were 27.73 ± 5.97 nM for MDA-MB-231 and 35.14 ± 7.09 nM for the MCF7 breast cancer cell line. Thes ...

Row | remaining at 5 h ([1]; human plasma 400 μL + 50 μL radiopeptide, duplicate, CH3CN/EtOH precipitation, read-out: Radioactivity still associated with the radiolabeled peptide) | Release of free ^177Lu ([1]; human plasma, 5 h) | Compound | Biological and excretion pattern compared with the ^68Ga-labeled counterpart (Balb/c mice) | Kd [2]
1 | > 90% | up to 10% | CC[C@H](C)[C@H](NC(=O)[C@H](Cc1ccc(O)cc1)NC(=O)[C@@H](NC(=O)[C@H](CCCNC(=N)N)NC(=O)[C@H](CC(=O)O)NC(=O)CCNC(=O)[C@H](CCCCN)NC(=O)CN1CCN(CC(=O)O)CCN(CC(=O)O)CCN(CC(=O)O)CC1)C(C)C)C(=O)N[C@@H](Cc1c[nH]cn1)C(=O)N1CCC[C@H]1C(=O)N[C@@H](Cc1ccccc1)C(=O)N[C@@H](Cc1c[nH]c2ccccc12)C(=O)N[C@@H](CCCCN)C(=O)N[C@@H](Cc1ccc(O)cc1)C(N)=O [^177Lu-DOTA-AngII peptide, metal not drawn] ({DOTA}-K[βAla]DRVYIHPFWKY-NH2) | more or less the same biological and excretion pattern | –
2 | – | – | ^125I-angiotensin II: radioiodinated angiotensin II from the literature, ref 13 (DRVYIHPF; also: radioiodinated (125I label), site not given here; UniProt P01019 25-32, looked up) | – | ~60 nM
